The source of these data is article PMC3289994 (Archives of Biochemistry and Biophysics, 2012).

In one assay the target is T1, β-lactoglobulin (LG) (Bos taurus, UniProt P02754).
T1 sequence (P02754 17-178): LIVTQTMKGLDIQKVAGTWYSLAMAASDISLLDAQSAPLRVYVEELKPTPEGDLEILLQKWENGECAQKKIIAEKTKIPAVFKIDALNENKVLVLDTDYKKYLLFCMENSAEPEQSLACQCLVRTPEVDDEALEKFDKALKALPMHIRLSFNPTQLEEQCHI
As to the kind of experiment: SPR equilibrium binding of carotenoids to immobilized LG.

Assay [1] has as its target human serum albumin (HSA) (Homo sapiens, UniProt P02768). Kind of assay: SPR equilibrium binding of carotenoids to immobilized HSA.
Assay [2] concerns the target T2, StARD1 protein binding domain (residues 63–285) (Homo sapiens, UniProt P49675).
T2 sequence (P49675 63-285): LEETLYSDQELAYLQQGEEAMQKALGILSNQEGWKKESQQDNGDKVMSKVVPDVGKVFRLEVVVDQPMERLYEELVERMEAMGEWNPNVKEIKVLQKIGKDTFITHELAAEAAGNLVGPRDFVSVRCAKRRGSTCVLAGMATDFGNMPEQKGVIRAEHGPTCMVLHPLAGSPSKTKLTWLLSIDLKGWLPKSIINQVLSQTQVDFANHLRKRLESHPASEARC
Kind of assay: FastStep SPR equilibrium binding of carotenoids to immobilized StARD1.

Sequence of human serum albumin (HSA) (P02768 25-609): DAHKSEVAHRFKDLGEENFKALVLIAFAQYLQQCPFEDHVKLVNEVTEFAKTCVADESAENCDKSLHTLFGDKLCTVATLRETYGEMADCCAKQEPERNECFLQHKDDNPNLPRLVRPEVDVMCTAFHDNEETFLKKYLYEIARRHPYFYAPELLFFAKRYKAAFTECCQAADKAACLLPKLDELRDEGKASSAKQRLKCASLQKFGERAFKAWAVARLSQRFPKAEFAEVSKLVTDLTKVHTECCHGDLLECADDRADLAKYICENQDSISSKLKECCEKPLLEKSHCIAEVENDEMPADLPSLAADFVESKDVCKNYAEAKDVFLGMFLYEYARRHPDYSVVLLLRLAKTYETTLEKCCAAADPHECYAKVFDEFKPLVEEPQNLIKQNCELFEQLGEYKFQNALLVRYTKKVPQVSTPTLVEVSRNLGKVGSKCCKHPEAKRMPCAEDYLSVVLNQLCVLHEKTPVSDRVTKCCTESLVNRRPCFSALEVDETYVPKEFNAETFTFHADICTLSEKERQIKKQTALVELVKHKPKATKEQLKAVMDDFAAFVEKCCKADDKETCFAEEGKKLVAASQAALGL

`CC1=C(/C=C/C(C)=C/C=C/C(C)=C/C=C/C=C(C)/C=C/C=C(C)/C=C/C2=C(C)C(=O)[C@@H](O)CC2(C)C)C(C)(C)C[C@H](O)C1=O` [Astaxanthin, (3S, 3′S)-astaxanthin]: the results for the Kd (at β-lactoglobulin (LG); in assay [1]; in assay [2]) were 1900 ± 50 nM, 1560 ± 30 nM and 1960 ± 90 nM, respectively.
The like results for `CC1=C(/C=C/C(C)=C/C=C/C(C)=C/C=C/C=C(C)/C=C/C=C(C)/C=C/C2=C(C)C[C@@H](O)CC2(C)C)C(C)(C)C[C@H](O)C1` [Zeaxanthin, (3R, 3′R)-zeaxanthin] were, in that order, 2300 ± 20 nM, 1600 ± 50 nM and 1320 ± 90 nM.
The matching figures for `CC1=C[C@H](O)CC(C)(C)[C@H]1/C=C/C(C)=C/C=C/C(C)=C/C=C/C=C(C)/C=C/C=C(C)/C=C/C1=C(C)C[C@@H](O)CC1(C)C` [Lutein, (3R, 3′R, 6′R)-lutein]: 2480 ± 80 nM, 1160 ± 40 nM and 1150 ± 60 nM.
The matching figures for `CC1=C(/C=C/C(C)=C/C=C/C(C)=C/C=C/C=C(C)/C=C/C=C(C)/C=C/C2=C(C)CCCC2(C)C)C(C)(C)CCC1` [β-Carotene]: 2400 ± 50 nM, 1530 ± 20 nM and 1790 ± 80 nM.

In general, Kd refers to the constant that tells how readily two partners part at equilibrium. Low values mean higher affinity, high ones lower affinity.
